# Experimental data: patent US8445522B2, “Substituted 2-(4-pyridyl)benzoxazoles, and compositions thereof, for use in arthropod pest control” (Sumitomo Chemical Company, Limited, priority 2009, dated 2013)
# Key:
# Format in all cases: in vivo
# tobacco whitefly = assay: Test Example 4: test diluent scattered on tomato seedling with hatched tobacco whitefly larvae; settings: 168 h; 500 ppm, 10 ml/cup scattered on tomato seedling at larvae stage, counted after seven days at 25° C.; read-out: Control value
# Protocol: The formulations were diluted with water so that the concentration of the active ingredient became 500 ppm and thus test diluents were prepared. On the other hand, by releasing tobacco whitefly imagos to a tomato seedling planted in a plastic cup to allow them to lay eggs for about 24 hours. The tomato seedling was kept in a green house for eight days. At the stage in which larvae hatched from the laid eggs, any of the test diluents was scattered at the rate of 10 ml/cup. The tomato seedling was kept in the greenhouse at 25° C. for seven days. The number of survived larvae on tomato leaves was counted, and the control value was calculated by the following equation. Control value(%)={1−(Cb×Tai)/(Cai×Tb)}×100 wherein each character represents the following meaning: Cb: number of insects in non-treated section before treatment Cai: number of insects in non-treated section during observation Tb: number of insects in treated section before treatment Tai: number of insects in treated section during observation
# [1] = system: cotton aphids (Aphis gossypii Glover); assay: Test Example 1: test diluent scattered on cucumber seedling inoculated with cotton aphids; settings: 120 h, 500 ppm active ingredient, 10 ml scattered on cucumber seedling, counted five days after scattering, read-out: Control value
# Protocol: The formulations were diluted with water so that the concentration of the active ingredient became 500 ppm and thus test diluents were prepared. On the other hand, a cucumber seedling (second true leaf development stage) planted in a plastic cup was inoculated with about 30 cotton aphids (Aphis gossypii Glover) and allowed to stand for one day. To the seedling, any one of the diluents (10 ml) was scattered. Five days after the scattering, the number of survived cotton aphids parasitic on the cucumber leaves was counted, and the control value was calculated by the following equation. Control value(%)={1−(Cb×Tai)/(Cai×Tb)}×100 wherein each character represents the following meaning: Cb: the number of insects in non-treated section before treatment Cai: the number of insects in non-treated section during observation Tb: the number of insects in treated section before treatment Tai: the number of insects in treated section during observation
# cotton aphids = assay: Test Example 2: plant foot irrigation of cucumber seedling in urethane mat, cotton aphids inoculated one day after treatment; settings: 168 h; 500 ppm, 5 ml plant foot irrigation, urethane mat; aphids inoculated one day after treatment, counted seven days after; read-out: Control value
# Protocol: The formulations were diluted with water so that the concentration of the active ingredient became 500 ppm and thus test diluents were prepared. On the other hand, a plant foot of cucumber seedling (second true leaf development stage) planted in a urethane mat was irrigated with any one of diluents (5 ml). One day after the treatment, the cucumber leaves were inoculated with 30 cotton aphids (all stages). Further seven days after, the number of survived cotton aphids parasitic on the cucumber leaves was counted, and the control value was calculated by the following equation. Control value(%)={1−(Cb×Tai)/(Cai×Tb)}×100 wherein each character represents the following meaning: Cb: number of insects in non-treated section before treatment Cai: number of insects in non-treated section during observation Tb: number of insects in treated section before treatment Tai: number of insects in treated section during observation
# rice brown planthopper = assay: Test Example 6: plant foot irrigation of rice plant seedling, rice brown planthopper released after seven days; settings: Nilaparvata lugens, 144 h; 500 ppm, 5 ml plant foot irrigation of rice seedling; first-instars released after seven days, counted six days after; read-out: Control value
# Protocol: The formulations were diluted with water so that the concentration of the active ingredient became 500 ppm and thus test diluents were prepared. On the other hand, a plant foot of rice plant seedling (two weeks after seeding, second leaf development stage) planted in a plastic cup was irrigated with any one of diluents (5 ml). The seedling was kept in a green house of 25° C. for seven days. Thirty first-instars of rice brown planthopper were released to the seedling, which was kept in the green house at 25 C for six days. Thereafter, the number of survived rice brown planthopper parasitic on rice plant leaves was counted, and the control value was calculated by the following equation. Control value(%)={1−(Cb×Tai)/(Cai×Tb)}×100 wherein each character represents the following meaning: Cb: number of insects in non-treated section before treatment Cai: number of insects in non-treated section during observation Tb: number of insects in treated section before treatment Tai: number of insects in treated section during observation
SMILES,pest or weed control at 500 ppm (tobacco whitefly),pest or weed control at 500 ppm [1],pest or weed control at 500 ppm (cotton aphids),pest or weed control at 500 ppm (rice brown planthopper)
"FC(F)(F)c1ccc2nc(-c3ccncc3)oc2n1 [Active Compound 153, 2-(pyridin-4-yl)-5-(trifluoromethyl)oxazolo[5,4-b]pyridine]",≥ 90%,,,
"FC(F)(F)c1ccc2nc(-c3ccncc3Cl)oc2n1 [Active Compound 154, 2-(3-chloropyridin-4-yl)-5-(trifluoromethyl)oxazolo[5,4-b]pyridine]",≥ 90%,,,
"CCc1ccc2oc(-c3ccncc3)nc2c1 [active compound 3, 5-ethyl-2-(pyridin-4-yl)-benzoxazole]",≥ 90%,,,
"CC(C)c1ccc2oc(-c3ccncc3)nc2c1 [active compound 5, 5-isopropyl-2-(pyridin-4-yl)-benzoxazole]",≥ 90%,≥ 90%,,
"CC(C)(C)c1ccc2oc(-c3ccncc3)nc2c1 [active compound 6, 5-tert-butyl-2-(pyridin-4-yl)-benzoxazole]",≥ 90%,≥ 90%,,
"FC(F)(F)c1ccc2oc(-c3ccncc3I)nc2c1 [active compound 29, 2-(3-iodopyridin-4-yl)-5-(trifluoromethyl)benzoxazole]",,,≥ 90%,
"FC(F)(F)COc1cnccc1-c1nc2cc(C(F)(F)F)ccc2o1 [active compound 39, 2-[3-(2,2,2-trifluoroethyl)oxypyridin-4-yl]-5-(trifluoromethyl)benzoxazole]",,,,≥ 90%
"CCSc1cnccc1-c1nc2cc(C(F)(F)F)ccc2o1 [active compound 41, 2-(3-ethylthiopyridin-4-yl)-5-(trifluoromethyl)benzoxazole]",,,,≥ 90%
"Nc1cnccc1-c1nc2cc(C(F)(F)F)ccc2o1 [active compound 52, 2-(3-aminopyridin-4-yl)-5-(trifluoromethyl)benzoxazole]",≥ 90%,,,
"FC(F)(F)c1ccc2oc(-c3ccncc3N3CCCC3)nc2c1 [active compound 53, 2-[3-(pyrrolidine-1-yl)pyridin-4-yl]-5-(trifluoromethyl)benzoxazole]",≥ 90%,,,
"FC(F)(F)c1ccc2oc(-c3ccncc3N3CCOCC3)nc2c1 [active compound 55, 2-[3-(morpholin-4-yl)pyridin-4-yl]-5-(trifluoromethyl)benzoxazole]",,,≥ 90%,
"FC(F)(F)c1ccc2oc(-c3ccncc3-n3ccnc3)nc2c1 [active compound 56, 2-[3-(imidazole-1-yl)pyridin-4-yl]-5-(trifluoromethyl)benzoxazole]",,,≥ 90%,
"FC(F)(F)c1ccc2oc(-c3ccncc3OCC(F)(F)C(F)(F)F)nc2c1 [active compound 75, 2-[3-(2,2,3,3,3-pentafluoropropoxy)pyridin-4-yl]-5-(trifluoromethyl)benzoxazole]",,,,≥ 90%
"FC(F)(F)Sc1ccc2oc(-c3ccncc3)nc2c1 [active compound 76, 2-(pyridin-4-yl)-5-(trifluoromethylthio)benzoxazole]",,,≥ 90%,
"FC(F)(F)COc1cnccc1-c1nc2cc(C(F)(F)F)c(Cl)cc2o1 [active compound 92, 6-chloro-2-[3-(2,2,2-trifluoroethoxy)pyridin-4-yl]-5-(trifluoromethyl)benzoxazole]",,,,≥ 90%
"CCc1cnccc1-c1nc2cc(C(F)(F)F)c(Cl)cc2o1 [active compound 93, 6-chloro-2-(3-ethylpyridin-4-yl)-5-(trifluoromethyl)benzoxazole]",,,≥ 90%,≥ 90%
Fc1cc2oc(-c3ccncc3Cl)nc2cc1C(F)(F)F [active compound 94],,,≥ 90%,
"COc1cnccc1-c1nc2cc(C(C)(C)C)ccc2o1 [active compound 100, 5-tert-butyl-2-(3-methoxypyridin-4-yl)benzoxazole]",≥ 90%,≥ 90%,,≥ 90%
"CC(C)(C)c1ccc2oc(-c3ccncc3OCC(F)(F)F)nc2c1 [active compound 101, 5-tert-butyl-2-[3-(2,2,2-trifluoroethoxy)pyridin-4-yl]benzoxazole]",≥ 90%,≥ 90%,,≥ 90%
"CC(C)Oc1cnccc1-c1nc2cc(C(C)(C)C)ccc2o1 [active compound 104, 5-tert-butyl-2-(3-isopropoxypyridin-4-yl)benzoxazole]",≥ 90%,≥ 90%,,
"CCc1cnccc1-c1nc2cc(C(C)(C)C)ccc2o1 [active compound 105, 5-tert-butyl-2-(3-ethylpyridin-4-yl)benzoxazole]",≥ 90%,≥ 90%,,
"FC(F)COc1cnccc1-c1nc2cc(C(F)(F)F)ccc2o1 [active compound 110, 2-[3-(2,2-difluoroethoxy)pyridin-4-yl]-5-(trifluoromethyl)benzoxazole]",≥ 90%,≥ 90%,≥ 90%,≥ 90%
"CC(Oc1cnccc1-c1nc2cc(C(F)(F)F)ccc2o1)C(F)(F)F (centres unmarked) [active compound 111, 2-[3-(1-methyl-2,2,2-trifluoroethoxy)pyridin-4-yl]-5-(trifluoromethyl)benzoxazole]",≥ 90%,≥ 90%,,≥ 90%
"FC(F)(F)c1ccc2oc(-c3ccncc3OC3CCCC3)nc2c1 [active compound 115, 2-(3-cyclopentyloxypyridin-4-yl)-5-(trifluoromethyl)benzoxazole]",,≥ 90%,,
"CC(C)COc1cnccc1-c1nc2cc(C(F)(F)F)ccc2o1 [active compound 116, 2-(3-isobutoxypyridin-4-yl)-5-(trifluoromethyl)benzoxazole]",,≥ 90%,,
"CCC(C)Oc1cnccc1-c1nc2cc(C(F)(F)F)ccc2o1 (centres unmarked) [active compound 119, 2-(3-sec-butoxypyridin-4-yl)-5-(trifluoromethyl)benzoxazole]",,,≥ 90%,
"COCCOc1cnccc1-c1nc2cc(C(F)(F)F)ccc2o1 [active compound 120, 2-[3-(2-methoxyethoxy)pyridin-4-yl]-5-(trifluoromethyl)benzoxazole]",,,≥ 90%,
"FC(F)Oc1cnccc1-c1nc2cc(C(F)(F)F)ccc2o1 [active compound 126, 2-(3-difluoromethoxypyridin-4-yl)-5-(trifluoromethyl)benzoxazole]",≥ 90%,≥ 90%,≥ 90%,≥ 90%
"FC(F)(F)c1ccc2oc(-c3ccncc3-c3cccnc3)nc2c1 [active compound 128, 4-(5-trifluoromethyl-benzoxazole-2-yl)-[3,3′]bipyridinyl]",,,≥ 90%,
"CN(C)c1cnccc1-c1nc2cc(C(F)(F)F)ccc2o1 [active compound 131, dimethyl-{4-[5-(trifluoromethyl)benzoxazole-2-yl]pyridin-3-yl}amine]",,,≥ 90%,
